# Where “and” joins values, the source holds several entries; their conditions need not be identical. Equal values may be shown once.
# Columns and labels:
# Type in all cases: cell-based
# 320 non-olfactory GPCRs [1] = biological target: T1, 320 non-olfactory GPCRs (Homo sapiens, UniProt P37288)
# T1 construct: expressed in transfected cells; host or cells: HTLA cells
# 320 non-olfactory GPCRs [2] = biological target: T2, 320 non-olfactory GPCRs (Homo sapiens, UniProt P41968); details: receptor MC3Rb; replicate values, Fig_4g
# T2 construct: expressed in transfected cells; host or cells: HTLA cells
# T2 sequence (P41968 whole entry): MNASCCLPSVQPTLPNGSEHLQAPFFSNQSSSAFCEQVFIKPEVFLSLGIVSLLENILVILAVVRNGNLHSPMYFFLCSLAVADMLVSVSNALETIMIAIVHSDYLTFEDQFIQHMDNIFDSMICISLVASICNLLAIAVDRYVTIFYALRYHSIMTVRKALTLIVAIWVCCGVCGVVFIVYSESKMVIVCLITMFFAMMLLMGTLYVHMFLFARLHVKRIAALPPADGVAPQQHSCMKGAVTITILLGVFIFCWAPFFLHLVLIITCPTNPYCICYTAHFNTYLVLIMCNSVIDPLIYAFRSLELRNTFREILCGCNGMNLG
# 320 non-olfactory GPCRs [3] = biological target: T3, 320 non-olfactory GPCRs (Homo sapiens, UniProt Q01726); details: receptor MC1R; replicate values, Fig_4g
# T3 construct: expressed in transfected cells; host or cells: HTLA cells
# T3 sequence (Q01726 whole entry): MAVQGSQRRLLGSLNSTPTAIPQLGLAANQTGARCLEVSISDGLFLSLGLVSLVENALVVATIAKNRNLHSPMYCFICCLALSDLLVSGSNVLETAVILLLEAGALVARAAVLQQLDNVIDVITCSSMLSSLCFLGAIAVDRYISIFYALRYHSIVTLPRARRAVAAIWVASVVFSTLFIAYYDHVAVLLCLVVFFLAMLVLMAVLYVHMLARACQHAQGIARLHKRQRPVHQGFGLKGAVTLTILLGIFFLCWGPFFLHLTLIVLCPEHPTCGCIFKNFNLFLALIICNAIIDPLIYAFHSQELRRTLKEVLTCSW
# 320 non-olfactory GPCRs [4] = biological target: T4, 320 non-olfactory GPCRs (Homo sapiens, UniProt Q8TDS7); details: receptor MRGPRD; replicate values, Fig_4g
# T4 construct: expressed in transfected cells; host or cells: HTLA cells
# T4 sequence (Q8TDS7 whole entry): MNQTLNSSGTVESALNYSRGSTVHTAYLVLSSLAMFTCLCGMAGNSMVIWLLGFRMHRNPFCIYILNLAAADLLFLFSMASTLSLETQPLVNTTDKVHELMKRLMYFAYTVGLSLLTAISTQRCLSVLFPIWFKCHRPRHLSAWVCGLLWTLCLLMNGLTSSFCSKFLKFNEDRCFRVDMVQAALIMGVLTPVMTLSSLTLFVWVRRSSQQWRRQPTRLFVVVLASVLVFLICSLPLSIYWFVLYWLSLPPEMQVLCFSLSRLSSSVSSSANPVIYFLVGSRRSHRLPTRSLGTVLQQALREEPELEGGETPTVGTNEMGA
# 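Throughout, for Fold of Basal: compound tested at 1 µM final concentration.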
# 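Throughout, for GPCRome agonism screen response: fold over basal response of each receptor without drug.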
# T1 sequence (P37288 whole entry): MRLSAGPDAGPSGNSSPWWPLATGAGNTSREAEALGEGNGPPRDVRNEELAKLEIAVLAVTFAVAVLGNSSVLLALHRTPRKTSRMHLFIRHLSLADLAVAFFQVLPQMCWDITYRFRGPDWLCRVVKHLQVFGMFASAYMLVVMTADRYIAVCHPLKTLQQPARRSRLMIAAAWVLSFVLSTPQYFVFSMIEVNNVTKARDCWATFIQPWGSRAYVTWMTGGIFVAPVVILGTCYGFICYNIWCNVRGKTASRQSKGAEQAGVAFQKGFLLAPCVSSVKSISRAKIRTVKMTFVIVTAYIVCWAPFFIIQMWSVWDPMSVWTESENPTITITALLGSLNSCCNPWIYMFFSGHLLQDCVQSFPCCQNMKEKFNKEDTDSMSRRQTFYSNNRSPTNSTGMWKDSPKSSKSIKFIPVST
smiles,measurement,setting,value
CCOc1cccc2cc(C(C)NCC3(O)CCCCC3)oc12 (stereo not shown) [O4LE6],Fold of Basal,320 non-olfactory GPCRs [1],0.5721 and 0.4612 and 0.3897 and 0.4481
same,GPCRome agonism screen response,320 non-olfactory GPCRs [2],1.102 and 1.23 and 1.725 and 1.228
same,GPCRome agonism screen response,320 non-olfactory GPCRs [3],1.144 and 0.3717 and 0.6675 and 1.8673
same,GPCRome agonism screen response,320 non-olfactory GPCRs [4],1.227 and 0.5077 and 1.775 and 0.8477
